Data: patent US20220401452A1, “USE OF INHIBITORS OF ENHANCER OF ZESTE HOMOLOG 2” (The Board Of Regents of The University of Texas System, priority 2019, published 2022)

What was measured:
[1] = system: DU145 cells; assay: Growth curve of DU145 cells; format: cell-based, human; settings: FIG. 9A
Method: Genetic inhibition of EZH2 suppressed growth of CRPC cells better than that of androgen-dependent prostate cancer cells. As EZH2 is a druggable enzyme with available small-molecule inhibitors, the efficacy of EZH2-targeting drugs was assessed in prostate cancer cells. […] Cells were grouped based on the basic characteristics. ADPC is androgen-dependent prostate cancer, and CRPC is castration-resistant prostate cancer. Concentrations as low as 500 nM of the EZH2 inhibitors (EZH2i) greatly retarded the growth of castration-resistant abl cells. […] Relatively higher doses of EZH2i were required to suppress the androgen-dependent LNCaP cells. […] This was consistent with a previous report that neither PC3 nor DU145 requires EZH2 for continued growth.

[2] = system: H3K27 methylation in prostate cell lines; assay: Western blot of H3K27 methylation levels in prostate cell lines; format: cell-based, human; settings: all tested prostate cell lines; 1 or 5 μM
Text: In view of the canonical function of EZH2 in catalyzing H3K27me3, the mechanisms of how repressive chromatin mark contribute to the growth and gene inhibitory effects of EZH2i were investigated. […] Discrepancies between EZH2i-induced H3K27me3 reduction and cell insensitivity to EZH2i were also reported in lymphoma cells.

[3] = system: abl cells; assay: Gene expression by RNA-Seq in abl cells; format: cell-based, human; settings: 5 μM, 72 hrs
Method: (§1) Blue bars represent the percentage of genes in each specific functional category. The red line represents values of the false discovery rate (FDR) for the particular GO term. […] Two analyses were carried out to rule out the possible off-targeted effect of EZH2i on gene regulation. First, transcriptional profiles were compared in abl being treated with either EZH2i or in which EZH2 had been silenced using RNA interference (RNAi). Pharmacologic and genetic inhibition of EZH2 shared highly similar gene expression patterns.
(§2) Analysis of EZH2 Inhibitor Mediated Gene Expression by RNA-Seq. […] RNA-seq library was prepared using Illumina True-seq RNA sample preparation kit and sequenced to 50 bp using Illumina Hi-seq platform. RNA-seq data was mapped to human genome (hg19) using TopHat version 2.0.6. […] Differentially expressed genes were first filtered using LFC>0.5 or <−0.5, and then top 200 genes were selected through ranking by their p-values. The authentic target genes of EZH2 in abl cells were defined as those showing similar expression changes upon either EZH2 silencing or inhibitor treatment.

[4] = system: DU145 cells; assay: Gene expression by RNA-Seq in DU145 cells; format: cell-based, human; settings: 5 μM, 72 hrs
Method: as §1, §2

[5] = system: C4-2B, LAPC4-CR and LNCaP-AI cells; assay: RT-qPCR of selected genes in C4-2B, LAPC4-CR and LNCaP-AI; format: cell-based, human; settings: 5 μM, 72 hrs
Text: The expression of these genes was examined in three other EZH2i-sensitive CRPC cell lines: C4-2B, LAPC4-CR and LNCaP-AI. FIG. 2D is a heat map of quantitative real-time RT-qPCR results showing changes in mRNA levels of selected gene in three prostate cancer cell lines (C4-2B, LAPC4-CR, and LNCaP-AI). […] EZH2-activated genes and EZH2-repressed genes are grouped together. […] Numbers, triplicates of samples from control or treatment group.
RNA isolation and RT-qPCR. RNA was extracted and purified using the TRIzol Reagent combined with RNeasy Mini Kit (Qiagen) according to manufacturer's protocols. 2 μg of total RNAs were then used for cDNA synthesis using High Capacity cDNA Reverse Transcription Kit (Applied Biosystems). Real-time quantitative RT-PCR was performed, and gene expression was calculated as described previously, using the formula 2-ΔΔCt relative to the level of GAPDH as the internal control.

[6] = system: 668 cancer cells lines of various types; settings: CTRP data, cited from earlier work
[7] = system: LNCaP cells; assay: Alkaline comet assay after ionizing radiation in LNCaP cells; format: cell-based, human; settings: 5 μM pretreatment 7 days, recovery 4 hrs
Method: (§3) EZH2i can be administered to sensitize CRPC cells to DNA damage repair (DDR) agents. To validate this, abl, LNCaP and DU145 cells were exposed to increasing doses of ionizing radiation (IR). […] FIG. 6A is a graphical representation of the alkaline comet assays in abl cells. Prostate cancer cells were pretreated with vehicle (DMSO) or 5 μM GSK126 (GSK) for 7 days, and then exposed to increasing dosages of ionizing radiation (IR) followed by recovery for 4 hrs. FIG. 6B is a set of photographic images of each IR dosage corresponding to the dosages in FIG. 6A. FIG. 6C is a graphical representation of the alkaline comet assays in LNCaP cells. […]
(§4) FIG. 15A is a graphical representation of the alkaline comet assay results in abl cells after pretreatment with vehicle (DMSO) or 5 μM GSK126 (GSK) for 7 days and then being exposed to 5 gray (Gy) ionizing radiation (IR) followed by recovery at indicated time points (Quantification of the results using “Olive Tail Moment” parameter). […] FIG. 15C is a graphical representation of the alkaline comet assay results in LNCaP cells after pretreatment with vehicle (DMSO) or 5 μM GSK126 (GSK) for 7 days and then being exposed to 5 gray (Gy) ionizing radiation (IR) followed by recovery at indicated time points (Quantification of the results using “Olive Tail Moment” parameter). […]

[8] = system: CWR22Rv1 xenografts; assay: Test of EZH2 inhibitors in CWR22Rv1 xenograft mouse model; format: in vivo, castrated nude mice
Method: FIG. 1F is a growth curve of xenograft tumors in castrated nude mice injected with CWR22Rv1 cells receiving vehicle (Veh) or GSK126, at the indicated doses.
Test of EZH2 Inhibitors in Xenograft Mouse Model. Male nude mice (Taconic) were castrated after 3 days of accommodation. CWR22Rv1 xenografts were established in the flanks of mice by injecting ˜2 million cells in 50% Matrigel (BD Biosciences). […] Tumors were measured 3 times every week and harvested after 3 weeks. Frozen samples were subjected to RT-qPCR and immunoblotting to study the expression of selected genes. All animal protocols were approved by the Beth Israel Deaconess Institutional Animal Care and Use Committee, and the experiments were performed in accordance with institutional and national guidelines.

[9] = system: DU145 cells; assay: Alkaline comet assay after ionizing radiation in DU145 cells; format: cell-based, human; settings: 5 μM pretreatment 7 days, recovery 4 hrs
Method: as §3, §4

[10] = system: abl cells; assay: Alkaline comet assay after ionizing radiation in abl cells; format: cell-based, human; settings: 5 μM pretreatment 7 days
Method: as §3, §4

Compound | inhibitory effect on growth of AR-null DU145 [1] | total H3K27 di- and tri-methylation levels [2] | gene expression pattern in abl cells [3] | gene expression pattern in EZH2i-insensitive DU145 cells [4] | expression of EZH2-repressed genes [5] | potency by EZH2 mutation status ([6]; GOF vs LOF p=0.2705, GOF vs None p=1.000) | sensitivity of cell lines by expression of DNA repair genes ([6]; top 25% highest vs bottom 25% lowest expression) | difference in sensitivity to ionizing radiation (comet assay) [7] | xenograft tumor growth ([8]; CWR22Rv1 subcutaneous xenografts, castrated mice, daily injection, 21 days of treatment) | mRNA and protein levels of EZH2-activated genes in xenograft tumor tissues ([8]; CWR22Rv1 xenografts) | difference in sensitivity to ionizing radiation (comet assay) [9] | DNA damage repair after 5 Gy IR (Olive Tail Moment over recovery time) [10] | sensitivity to increasing doses of ionizing radiation (comet assay) ([10]; recovery 4 hrs)
CCN(c1cc(-c2ccc(CN3CCOCC3)cc2)cc(C(=O)NCc2c(C)cc(C)[nH]c2=O)c1C)C1CCOCC1 [EPZ-6438] | minimal | reduced total H3K27 di- and tri-methylation levels in a dose-dependent manner | a large number of genes were significantly downregulated | largely de-repressed genes | upregulated EZH2-repressed genes to some extent |  |  |  |  |  |  |  | 
C[C@H]1CN([C@@H](C)CO)S(=O)(=O)c2ccc(C#CCC3CCCC3)cc2O[C@@H]1CN(C)Cc1ccc(C(=O)O)cc1 [BRD] |  |  |  |  |  | does not show higher potency | much more susceptible |  |  |  |  |  | 
CC[C@H](C)n1cc(C)c2c(C(=O)NCc3c(C)cc(C)[nH]c3=O)cc(-c3ccc(N4CCNCC4)nc3)cc21 [GSK126] | minimal | reduced total H3K27 di- and tri-methylation levels in a dose-dependent manner | a large number of genes were significantly downregulated | largely de-repressed genes | upregulated EZH2-repressed genes to some extent |  |  | very minor | significantly retarded tumor growth | consistent decrease | non-existent | drastically delayed DNA damage repair | became much more sensitive to IR
